Source: the supplement of paper PMC10307832

Tests used:
Experiment in all cases: relative viability (nuclei count vs DMSO), 5 days (fraction); higher = more cells survive
Entinostat = compound: Nc1ccccc1NC(=O)c1ccc(CNC(=O)OCc2cccnc2)cc1 [Entinostat]
Procedure, shortened: (§1)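 Five library-drug doses, separated by factors of √10, were pinned into 1536-well plates holding lung cancer cell lines after an overnight stay at 37 °C. Cells were fixed, permeabilised and Hoechst-stained in one step after 5 days without medium change, then imaged at 4×. Viability compares treated-well with vehicle-well nuclei, counted in MetaXpress, as a median across plates. Passing plates had control CV below 25% and at least one doubling.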

SGI-1776 = compound: CN1CCC(CNc2ccc3ncc(-c4cccc(OC(F)(F)F)c4)n3n2)CC1 [SGI-1776]
Procedure, shortened: as §1

[1] = compound: C1COCCN1C2=NC(=NC3=C2OC4=C3C=CC=N4)C5=CC(=CC=C5)NC(=O)C6=CN=C(C=C6)N
Procedure, shortened: as §1

Entinostat + Olaparib = compound: Nc1ccccc1NC(=O)c1ccc(CNC(=O)OCc2cccnc2)cc1 [Entinostat] + O=C(c1cc(Cc2n[nH]c(=O)c3ccccc23)ccc1F)N1CCN(C(=O)C2CC2)CC1 [Olaparib] (partner 8 µM)
Procedure, shortened: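 Nuclei were stained with Hoechst during a one-step fixation (final 0.05% Triton X-100, 1% formaldehyde, 1 ug/ml Hoechst) carried out 5 days after dosing, then counted on 4× images. The cells, lung cancer lines in 1536-well plates, had been dosed by pin tool the day after seeding with one drug alone or a fixed anchor-drug dose plus five library-drug doses (not always all listed) in √10 steps. Relative viability is the nuclei count in treated wells divided by that in vehicle wells, and each value is the median of duplicate plates.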

Question: Which results are given for UMC-11?
Answer: relative viability (Entinostat; 0.02 µM): 1.14; relative viability (Entinostat; 0.06325 µM): 1.11; relative viability (Entinostat; 0.2 µM): 0.918; relative viability (Entinostat; 0.6325 µM): 0.287; relative viability (Entinostat; 2 µM): 0.203; relative viability (SGI-1776; 0.08 µM): 1; relative viability (SGI-1776; 0.8 µM): 1.04; relative viability (SGI-1776; 2.53 µM): 0.923; relative viability (SGI-1776; 8 µM): 0.779; relative viability ([1]; 0.02 µM): 0.983; relative viability ([1]; 0.06325 µM): 1.05; relative viability ([1]; 0.2 µM): 0.945; relative viability ([1]; 0.6325 µM): 1.13; relative viability ([1]; 2 µM): 0.818; relative viability (Entinostat + Olaparib; first compound 0.02 µM): 0.376; relative viability (Entinostat + Olaparib; first compound 0.06325 µM): 0.345; relative viability (Entinostat + Olaparib; first compound 0.2 µM): 0.242; relative viability (Entinostat + Olaparib; first compound 0.6325 µM): 0.116; relative viability (Entinostat + Olaparib; first compound 2 µM): 0.0922
